We go through two compounds from US20240400997A1, “TRANSFORMED HUMAN HEPATIC STELLATE CELL LINE AND USE THEREOF” (KOREA RESEARCH INSTITUTE OF BIOSCIENCE AND BIOTECHNOLOGY, priority 2020, published 2024).

Data set [1] relates to CYP3A4 enzyme. Kind of data set: Liver injury simulation in 3D co-cultures with HepaRG: CYP3A4 enzyme activity and albumin production. As to conditions: hydrogels and NP-hydrogels, K-HSC or LX-2 with HepaRG 1:1.
Data set [2] relates to CYP3A4 enzyme.
In data set [3] the test system is primary human hepatic cells. Briefly: K-HSC and primary human hepatic cells 1:1 in hydrogel or nanoparticle-hydrogel, TGF-β1 cycles, albumin. The data set is classed as cell-based. As to conditions: 10 ng/mL TGF-β1, 3 cycles, 24-day culture, K-HSC with primary human hepatic cells. How it is done:
The K-HSC prepared in Example 1 was encapsulated with primary human hepatic cells (PHHs, Corning, USA) at a ratio of 1:1 in 4.5% polyethylene glycol/hyaluronic acid/RGD hydrogel using photopolymerization as described in Example 4. The cells frozen with nitrogen were thawed using recovery media (ThermoFisher, USA) and centrifuged, and then the number of cells were measured, and the cells were encapsulated with the K-HSC in a hydrogel, and then cultured for one day in a primary human hepatocyte plating medium (ThermoFisher, USA) containing 10% bovine serum. The medium was converted to a dedicated serum-free medium for primary human hepatic cells (Corning, USA), after 5 days, TGF-β1 inducing fibrosis, was added for 24 hours at a concentration of 10 ng/mL, and then converted back to a serum-free medium to which the TGF-β1 was not added in the following day, 3 cycles were performed, and the appearance change of the hydrogel was observed after the 24-day culture, and albumin production ability and expression levels of fibrosis markers were measured by RT-PCR.

Another data set has as its system TGF-β1. Kind of data set: K-HSC/HepaRG 1:1 in 4% hydrogel with TGF-β1 and inhibitor A, 18-day culture, liver fibrosis marker expression. As to conditions: K-HSC/HepaRG 1:1, 4% hydrogel, 18 days. The data set is classed as cell-based, human. The protocol: Meanwhile, the K-HSC was encapsulated with the hepatic cell line HepaRG at a ratio of 1:1 in a 4% hydrogel and then 3D cultured, and the groups were divided into experimental groups to which TGF-β1, which is a fibrosis-inducing material, and inhibitor A thereof were added individually or simultaneously, and a control group to which TGF-β1 and inhibitor A were not added. The groups were cultured for 18 days, and then the cell network formation and expression differences of fibrosis markers in the liver analogs were confirmed.

Like-named read-outs stand apart in the source and are kept apart here.

As to `CN(Cc1cnc2nc(N)nc(N)c2n1)c1ccc(C(=O)N[C@@H](CCC(=O)O)C(=O)O)cc1` [MTX, methotrexate], the “CYP3A4 enzyme activity and function” value with CYP3A4 enzyme [1] was “CYP3A4 enzyme activity and functional decrease were simulated”.
Take “transforming growth factor beta 1 [TGF-β1]”: in the data set with CYP3A4 enzyme [2], the “CYP3A4 enzyme activity and function” value is “CYP3A4 enzyme activity and functional decrease were simulated”. Besides, in data set [3], the “albumin degrading ability in the presence of TGF-β1 compared to control groups” value was “deterioration”. The “reactivity to TGF-β1 in expression of liver fibrosis markers” value with TGF-β1 is “confirmed in all markers except smooth muscle actin alpha (α-SMA) and lysyl oxidase (LOX)”.
